One block for each molecule: values may come before it.
Assay: solvent given as SMILES
[1] = in O=P(c1ccccc1)(c1ccccc1)c1ccccc1Oc1ccccc1P(=O)(c1ccccc1)c1ccccc1

Structure (SMILES): CC(C)c1cc(C(C)C)c(B2c3cc(-n4c5ccccc5c5ccccc54)ccc3N(c3ccccc3)c3ccc(-n4c5ccccc5c5ccccc54)cc32)c(C(C)C)c1
emission maximum (in C1CCOC1): 442.52 nm
emission maximum (in CCOC(C)=O): 442.52 nm
emission maximum (in Cc1ccccc1): 442.52 nm
emission maximum (in ClCCl): 442.52 nm
emission maximum (in c1cc(-c2cccc(-n3c4ccccc4c4ccccc43)c2)cc(-n2c3ccccc3c3ccccc32)c1): 452 nm

emission maximum (in ClC(Cl)Cl): 577 nm
Structure (SMILES): Cc1ccc(-c2oc3cccc4c5c(-c6ccc(C)cc6)/c(=N/S(=O)(=O)C(F)(F)F)oc6cccc(c2c34)c65)cc1

emission maximum (in ClCCl): 428 nm
Structure (SMILES): CCOC(=O)c1c(-c2cc3cc4c(cc3oc2=O)OC(C)(C)CC4)nn(-c2cccc(C)c2)c1C(=O)OCC

Structure (SMILES): CC(C)(C)c1ccc2c(c1)c1cc(C(C)(C)C)ccc1n2-c1cc[n+]2c(c1)-c1ccccc1O[B-]2(F)F
emission maximum (in Cc1ccccc1): 473 nm
emission maximum [1]: 488 nm

emission maximum (in CO): 512 nm
Structure (SMILES): Cc1cc(C)c(B(c2ccsc2-c2sccc2P(=O)(c2ccccc2)c2ccccc2)c2c(C)cc(C)cc2C)c(C)c1

emission maximum (in O): 570 nm
Structure (SMILES): CC[n+]1nc2cc3c4c(c2c2ccccc21)CCCN4CCC3

emission maximum (in ClCCl): 467 nm
Structure (SMILES): CCCCCCOc1cc(C=O)c(OCCCCCC)cc1C=O

Structure (SMILES): O=C(Cc1ccccc1)OCc1ccc2c3cccc4cccc(c5cccc1c52)c43
emission maximum (in CCO): 445 nm

Structure (SMILES): CCC1(CC)c2cc(/C=C/c3ccc(N(c4ccccc4)c4ccccc4)cc3)ccc2-c2ccc(/C=C/c3ccc(N(c4ccccc4)c4ccccc4)cc3)cc21
emission maximum (in Cc1ccccc1): 451 nm

emission maximum (in ClCCl): 392 nm
Structure (SMILES): CCn1c2ccc(-c3cccs3)cc2c2cc(-c3cccs3)ccc21

Structure (SMILES): CCCCCCC(CCCCCC)N1C(=O)c2cccc3c(-c4ccc(OC)c5ccccc45)ccc(c23)C1=O
emission maximum (in CCCCCC): 427.1 nm
emission maximum (in CCCCCCCCCCCCCC): 431.7 nm
emission maximum (in CCCCCCCCCCCO): 532.4 nm
emission maximum (in CCCCO): 576.8 nm
emission maximum (in CN(C)C=O): 581.8 nm
emission maximum (in Cc1ccccc1): 478 nm
emission maximum (in ClC(Cl)Cl): 509.7 nm

Structure (SMILES): CC(C)c1cc(C(C)C)c(B2c3ccccc3Oc3cc(N4c5ccccc5C(C)(C)c5ccccc54)ccc32)c(C(C)C)c1
emission maximum (in Cc1ccccc1): 475 nm

emission maximum (in CC#N): 504 nm
Structure (SMILES): C[n+]1cc2ccc3c[n+](C)c4ccccc4c3c2c2ccccc21

Structure (SMILES): O=S(=O)(c1cccc(-n2c3ccccc3c3ccccc32)c1)c1cccc(-n2c3ccccc3c3ccccc32)c1
emission maximum (in C1CCOC1): 426 nm
emission maximum (in CCCCC(CC)n1c2ccc(-n3c4ccccc4c4ccccc43)cc2c2cc(-n3c4ccccc4c4ccccc43)ccc21): 409.97 nm
emission maximum (in Cc1ccccc1): 405 nm
emission maximum (in ClC(Cl)Cl): 422 nm
emission maximum (in c1cc(-n2c3ccccc3c3ccccc32)cc(-n2c3ccccc3c3ccccc32)c1): 419.94 nm

emission maximum (in CO): 674 nm
emission maximum (in ClC(Cl)Cl): 699 nm
Structure (SMILES): CC[n+]1c(C=C2C(=O)C(C=C3Sc4cc(Cl)ccc4N3C)=C2[O-])[se]c2ccccc21

emission maximum (in CCO): 715 nm
Structure (SMILES): CCN(C(C)=O)c1cc2c(cc1C)C(c1ccccc1C(=O)O)=C1CCCC(/C=C/C3=[N+](C)c4ccc5ccccc5c4C3(C)C)=C1O2

emission maximum (in CN(C)C=O): 534 nm
Structure (SMILES): NCCCCCCCCCCCCN1C(=O)c2ccc3c4ccc5c6c(ccc(c7ccc(c2c37)C1=O)c64)C(=O)N(c1ccc(O)cc1)C5=O

emission maximum (in O): 407 nm
Structure (SMILES): Nc1ccc2ccc([O-])cc2c1

emission maximum (in CC#N): 551 nm
Structure (SMILES): Cc1ccc(-c2ccc(/C=C/c3ccc([N+](=O)[O-])cc3)cn2)nc1

Structure (SMILES): N#C/C(=N/Nc1ccc(C#N)cc1)c1nc(-c2ccccc2)cs1
emission maximum (in CCO): 486 nm
emission maximum (in Cc1ccccc1): 490 nm
emission maximum (in ClCCl): 492 nm

Structure (SMILES): CC1(C)c2ccccc2N(c2ccc3c(c2)c2ccccc2n2c4ccccc4nc32)c2ccccc21
emission maximum (in Cc1ccccc1): 437 nm
emission maximum [1]: 447.06 nm

emission maximum (in C1CCOC1): 450.74 nm
Structure (SMILES): CC(C)(C)c1ccc(-c2nc(-c3ccc(C(C)(C)C)cc3)nc(-c3ccc(-n4c5ccccc5c5c6oc7ccccc7c6ccc54)c(C#N)c3)n2)cc1

emission maximum (in C1CCCCC1): 497 nm
emission maximum (in CC#N): 533 nm
emission maximum (in CCO): 542 nm
emission maximum (in c1ccccc1): 519 nm
Structure (SMILES): CNc1cccc2c1C(=O)c1ccccc1-2

Structure (SMILES): CC1=CC(C)=[N+]2C1=C(c1c3ccccc3c(C)c3ccccc13)c1c(C)cc(C)n1[B-]2(F)F
emission maximum (in CC#N): 518 nm
emission maximum (in CCCCCC): 512 nm
emission maximum (in CCO): 516 nm
emission maximum (in CN(C)C=O): 519 nm
emission maximum (in Cc1ccccc1): 517 nm
emission maximum (in ClCCl): 519 nm

emission maximum (in CS(C)=O): 575 nm
Structure (SMILES): N#CC1=C(N)n2c(=O)c3ccccc3c(=O)n2C1c1ccc([N+](=O)[O-])cc1 (stereo unspecified)

emission maximum (in ClCCl): 519 nm
Structure (SMILES): O=C1c2ccccc2-c2nc3ccccc3n21

Structure (SMILES): c1ccc(-c2cc(-c3ccc(N4c5ccccc5C(c5ccccc5)(c5ccccc5)c5ccccc54)cc3)nc(-c3ccccc3)n2)cc1
emission maximum (in Cc1ccccc1): 450 nm
emission maximum [1]: 464 nm

emission maximum (in ClCCl): 558 nm
Structure (SMILES): CCN(CC)c1c2ccc(=[N+]3CCCCC3)cc-2oc2cc(N3CCCCC3)ccc12

emission maximum (in CCCCCC): 449 nm
Structure (SMILES): COC(=O)c1c(C(=O)OC)c2ccc(C)nn2c1C

emission maximum (in CO): 307 nm
emission maximum (in ClC(Cl)Cl): 320 nm
emission maximum (in ClCCl): 302 nm
Structure (SMILES): C(#Cc1ccccc1)c1ccccc1

emission maximum (in CO): 583 nm
Structure (SMILES): COc1ccc2[nH]cc(/C=C/C3=[NH+]c4cccc5cccc3c45)c2c1

emission maximum (in ClCCl): 681 nm
Structure (SMILES): COC(=O)CCC1=CC(C#Cc2cccs2)=[N+]2C1=Cc1c(CCC(=O)OC)cc(C#Cc3cccs3)n1[B-]2(F)F

emission maximum (in CCCCCC): 384 nm
emission maximum (in CO): 384 nm
emission maximum (in ClCCl): 385 nm
Structure (SMILES): CCCCc1ccc2ccc3c(CCCC)cc(CCCC)c4ccc1c2c34

emission maximum (in CCO): 644 nm
Structure (SMILES): CC/[NH+]=c1\cc2oc3cc(NCCC(=O)NC(C)C(=O)OC)c4ccccc4c3nc-2cc1C (stereo unspecified)

emission maximum (in CC#N): 512 nm
emission maximum (in CN(C)C=O): 516 nm
emission maximum (in ClCCl): 539 nm
Structure (SMILES): CCN(CC)c1ccc(/C=N/c2cc3ccccc3cc2/N=C/c2ccc(N(CC)CC)cc2O)c(O)c1

emission maximum (in CC#N): 703 nm
emission maximum (in ClCCl): 680 nm
emission maximum (in O): 698 nm
Structure (SMILES): CN(C)c1ccc(/C=C/c2cc[n+](C)c3ccccc23)cc1

emission maximum (in C1CCOC1): 492 nm
Structure (SMILES): c1cc2ccc1-c1ccc(cc1)-c1ccc([se]1)-c1ccc(cc1)-c1ccc(cc1)-c1ccc([se]1)-c1ccc(cc1)-c1ccc(cc1)-c1ccc([se]1)-c1ccc(cc1)-c1ccc(cc1)-c1ccc-2[se]1

emission maximum (in CC#N): 480 nm
Structure (SMILES): CCN(CC)c1ccc2cc(-c3nc4ccccc4n3C)c(=O)oc2c1

emission maximum (in ClCCl): 475 nm
Structure (SMILES): O=c1cc(-c2ccccc2)oc(-c2nc3ccccn3c2NC2CCCCC2)c1

emission maximum (in CC#N): 589 nm
Structure (SMILES): CN(C)C1=Nc2cccc3cccc1c23

Structure (SMILES): COc1ccc(N(c2ccccc2)c2cc3ccc4cc(N(c5ccccc5)c5ccc(OC)cc5)cc5ccc(c2)c3c45)cc1
emission maximum (in Cc1ccccc1): 482 nm

emission maximum (in ClCCl): 423 nm
Structure (SMILES): CCCCC(CC)COc1ccc2nc(-c3ccc(-c4ccccc4)s3)sc2c1 (stereo unspecified)

Structure (SMILES): CCCCC(CC)Cn1c2cc(C#N)c(-c3ccc(N(c4ccccc4)c4ccccc4)cc3)cc2c2cc(-c3ccc(N(c4ccccc4)c4ccccc4)cc3)c(C#N)cc21 (stereo unspecified)
emission maximum (in C1CCCCC1): 450 nm
emission maximum (in C1CCOC1): 494 nm
emission maximum (in CC#N): 542 nm
emission maximum (in CCCCOCCCC): 464 nm
emission maximum (in CCN(CC)CC): 464.65 nm
emission maximum (in CCOC(C)=O): 494 nm
emission maximum (in CCOCC): 472 nm
emission maximum (in CN(C)C=O): 542 nm
emission maximum (in Cc1ccccc1): 473 nm
emission maximum (in ClC=C(Cl)Cl): 478 nm
emission maximum (in ClCCl): 513 nm

emission maximum (in ClCCl): 408 nm
Structure (SMILES): c1ccc2c(c1)-c1ccccc1[Si]21c2ccccc2-c2cc3c(cc21)-c1ccccc1[Si]31c2ccccc2-c2ccccc21

Structure (SMILES): CC(C)(C)c1ccc2c(c1)c1cc(C(C)(C)C)cc3c1n2-c1cc(-c2ccc(F)cc2)cc2c1B3c1cc(C(C)(C)C)cc3c4cc(C(C)(C)C)ccc4n-2c13
emission maximum (in Cc1ccccc1): 496.94 nm

emission maximum (in C1CCOC1): 417 nm
Structure (SMILES): c1ccc2c(c1)-c1ccccc1C21c2ccccc2-c2c1c1c3ccccc3ccc1c1ccccc21

emission maximum (in CC#N): 501 nm
Structure (SMILES): Oc1ccccc1/C=N/c1cc2nc3ccccc3nc2cc1/N=C/c1ccccc1O

emission maximum (in ClC(Cl)Cl): 703 nm
Structure (SMILES): CCC1=C(CC)C(C)=[N+]2C1=Cc1c(C)c3cc4c(cc3n1[B-]2(F)F)=[N+]1C(=Cc2c(CC)c(CC)c(C)n2[B-]1(F)F)C=4C

Structure (SMILES): CC(C)(C)c1cc2ccc3c(-c4ccc(N(c5ccccc5)c5ccccc5)cc4)ccc4c5nc6cc(C#N)c(C#N)cc6nc5c(c1)c2c34
emission maximum (in C1CCOC1): 839.18 nm
emission maximum (in CCCCCC): 575.31 nm
emission maximum (in Cc1ccccc1): 613 nm
emission maximum (in ClC(Cl)Cl): 784.69 nm
emission maximum (in ClCCl): 839.18 nm

Structure (SMILES): CCN(CC)c1ccc(/C=C/C2=[O+][B-](F)(F)Oc3c2c(=O)oc2cc(N(CC)CC)ccc32)cc1
emission maximum (in C1CCCCC1): 556 nm
emission maximum (in C1COCCO1): 610 nm
emission maximum (in CC#N): 644 nm
emission maximum (in CC(C)=O): 636 nm
emission maximum (in CCO): 635 nm
emission maximum (in CCOC(C)=O): 617 nm
emission maximum (in CO): 637 nm
emission maximum (in CS(C)=O): 659 nm
emission maximum (in Cc1ccccc1): 597 nm
emission maximum (in ClC(Cl)Cl): 622 nm
emission maximum (in ClCCl): 634 nm
emission maximum (in OCC(O)CO): 654 nm
emission maximum (in OCCO): 653 nm

emission maximum (in CN(C)C=O): 534 nm
Structure (SMILES): NCCCCCCCCCCCCN1C(=O)c2ccc3c4ccc5c6c(ccc(c7ccc(c2c37)C1=O)c64)C(=O)NC5=O

emission maximum (in CC(C)O): 562 nm
emission maximum (in CCO): 564 nm
emission maximum (in CO): 563.8 nm
emission maximum (in O): 588.3 nm
Structure (SMILES): Cc1cc2nc3cc(C)c(N)cc3[n+](-c3ccccc3)c2cc1N

emission maximum (in C1CCOC1): 450 nm
Structure (SMILES): C1=Cc2ccccc2C(=Cc2ccc(-c3ccc(C=C4c5ccccc5-c5ccccc54)cc3)cc2)c2ccccc21

emission maximum (in C1CCCCC1): 412 nm
emission maximum (in CC#N): 412 nm
Structure (SMILES): C[Si](C)(c1cccc2cc3ccccc3cc12)[Si](C)(C)c1cccc2cc3ccccc3cc12

emission maximum (in ClC(Cl)Cl): 699 nm
Structure (SMILES): CN1C(=CC2=C([O-])C(=CC3=[N+](C)c4ccccc4C3(C)C)C2=C2C(=O)c3ccccc3C2=O)C(C)(C)c2ccccc21
